Assay results taken from US20260216183A1 (SHENZHEN NEWDEL BIOTECH CO., LTD., priority 2023, published 2026).

Experiments:
[1] = target: T1, DDR2 (Homo sapiens, UniProt Q16832); test: DDR2 enzyme activity assay (HTRF); type: biochemical; details: ATP 25 μM
T1 sequence (Q16832 22-855): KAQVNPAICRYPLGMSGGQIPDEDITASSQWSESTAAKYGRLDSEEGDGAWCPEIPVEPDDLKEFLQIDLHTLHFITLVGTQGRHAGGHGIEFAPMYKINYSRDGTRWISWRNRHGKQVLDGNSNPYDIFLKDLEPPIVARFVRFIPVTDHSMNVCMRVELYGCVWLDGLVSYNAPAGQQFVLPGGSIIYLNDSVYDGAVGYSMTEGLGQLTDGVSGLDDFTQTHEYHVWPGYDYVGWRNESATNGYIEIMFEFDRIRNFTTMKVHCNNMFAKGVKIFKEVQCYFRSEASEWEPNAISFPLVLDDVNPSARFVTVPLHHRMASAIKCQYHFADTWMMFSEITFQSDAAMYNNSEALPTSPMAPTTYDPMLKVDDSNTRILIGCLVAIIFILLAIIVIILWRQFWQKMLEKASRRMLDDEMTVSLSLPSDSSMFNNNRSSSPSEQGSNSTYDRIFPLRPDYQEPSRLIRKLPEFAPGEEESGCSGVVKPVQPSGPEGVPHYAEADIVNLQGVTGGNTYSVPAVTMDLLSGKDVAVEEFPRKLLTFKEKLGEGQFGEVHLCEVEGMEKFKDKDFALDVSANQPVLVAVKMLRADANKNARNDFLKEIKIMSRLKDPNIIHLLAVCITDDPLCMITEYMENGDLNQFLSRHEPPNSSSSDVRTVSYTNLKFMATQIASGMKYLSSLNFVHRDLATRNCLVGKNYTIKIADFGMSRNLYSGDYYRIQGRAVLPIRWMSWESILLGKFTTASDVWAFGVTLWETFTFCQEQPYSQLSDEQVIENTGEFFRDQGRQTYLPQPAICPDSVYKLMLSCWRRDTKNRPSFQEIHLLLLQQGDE
Description: Replicate wells were set for the assay. […] 2.5 μL of DDR2 (1.3 nM, 08-114, Carna) solution was transferred to a 384 reaction plate. The plate was centrifuged at 1000 rpm for 60 s using a centrifuge and incubated at 25° C. for 10 min. A mixed solution of 2× biotin-labeled tyrosine kinase substrate (1 μM) and ATP (25 μM) was prepared using the kinase reaction buffer. 2.5 μL of the mixed solution of the substrate and ATP was added to the reaction plate to start the reaction, and the plate was centrifuged at 1000 rpm for 60 s using the centrifuge. The plate was sealed with a plate-sealing film and incubated at 25° C. for 40 min. 5 μL of a mixed solution of Eu-CryPtate-labeled anti-tyrosine kinase antibody and streptavidin-XL665 was added to each well of the reaction plate. The plate was centrifuged at 1000 rpm for 1 min and incubated at 25° C. for 60 min. The fluorescence signals at 620 nm (Cryptate) and 665 nm (XL665) were read using a BMG microplate reader. The ratio of the fluorescence signals, i.e., (665 nm/620 nm)×10000, in each well was calculated, and the ratio represented the degree of the kinase activity.

[2] = tested on: OXA-induced atopic dermatitis mouse model; test: OXA-induced atopic dermatitis mouse model, oral administration; type: in vivo, Balb/c mice; details: for Inflammatory cell content in right ear tissue, Significance level: compared to G2 (vehicle); for Clinical scores of dorsal skin, Significance level / Rate of change in the thickness of the pinna of the right ear, Significance level / Thickness of dermis layer of right ear, Significance level / Thickness of epidermal layer of right ear, Significance level / Pinna thickness change rate at time point, Significance level: vs group 2 (vehicle); for Number of inflammatory cells per mm: right ear tissue, Mean ± SEM
Description: (§1) (1) Screening and grouping: 60 female 6- to 8-week-old Balb/c mice in total were used as experimental animals in this project, which were obtained from Shanghai Model Organisms Center, Inc. The first grouping was done before the start of the experiment. […] (2) Animal modeling: The day when the first grouping was done was designated as day (−7). The backs of the mice were depilated with depilatory cream (area of about 2 cm×3 cm). […] The 1% OXA solution was prepared by weighing 0.1 g of OXA powder, adding 10 mL of an acetone solution, mixing well, and dissolving. […] (3) The administration mode of the test substance: […] The mice were sacrificed on day 21. The skin of the right ear of the mice was left for pathological examination. The thickness of the epidermal layer and inflammatory cell infiltration were measured by H&E staining, and the thickness of the dermis layer was measured by Masson staining.

[3] = target: T2, DDR1 (Homo sapiens, UniProt Q08345); test: DDR1 enzyme activity assay (HTRF); type: biochemical; details: ATP 25 μM
T2 construct: purchased Carna 08-113
T2 sequence (Q08345 19-913): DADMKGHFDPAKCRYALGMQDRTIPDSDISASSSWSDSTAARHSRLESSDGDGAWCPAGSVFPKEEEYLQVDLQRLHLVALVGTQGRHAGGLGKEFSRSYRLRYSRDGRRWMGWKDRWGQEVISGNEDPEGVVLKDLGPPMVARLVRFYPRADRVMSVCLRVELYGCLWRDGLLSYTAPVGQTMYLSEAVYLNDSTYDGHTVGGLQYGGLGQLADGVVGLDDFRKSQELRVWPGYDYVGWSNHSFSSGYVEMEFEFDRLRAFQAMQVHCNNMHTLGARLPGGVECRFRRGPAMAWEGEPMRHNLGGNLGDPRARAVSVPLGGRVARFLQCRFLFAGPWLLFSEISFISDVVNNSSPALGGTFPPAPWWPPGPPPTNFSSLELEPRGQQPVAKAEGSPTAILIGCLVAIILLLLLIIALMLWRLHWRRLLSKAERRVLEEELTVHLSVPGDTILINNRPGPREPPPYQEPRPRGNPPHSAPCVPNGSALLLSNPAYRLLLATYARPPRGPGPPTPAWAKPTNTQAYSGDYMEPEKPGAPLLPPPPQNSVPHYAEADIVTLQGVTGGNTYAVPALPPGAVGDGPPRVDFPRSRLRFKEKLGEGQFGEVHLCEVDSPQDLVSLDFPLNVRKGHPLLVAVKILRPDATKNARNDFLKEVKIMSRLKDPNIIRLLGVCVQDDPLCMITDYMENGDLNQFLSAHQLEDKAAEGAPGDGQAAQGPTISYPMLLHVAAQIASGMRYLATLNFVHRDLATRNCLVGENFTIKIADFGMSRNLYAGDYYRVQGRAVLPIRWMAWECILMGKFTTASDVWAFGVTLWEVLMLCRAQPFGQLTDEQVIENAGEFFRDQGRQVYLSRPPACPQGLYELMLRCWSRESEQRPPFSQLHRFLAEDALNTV
Description: (§2) A kinase phosphorylates a substrate, and an antibody labeled with Eu-CryPtate binds to a phosphorylation site in the substrate; streptavidin-XL665 binds to the substrate biotin; when Eu and XL665 are close, Eu as a donor emits emission light (620 nm) after being excited by a light source (320 nm) and transfers energy resonance to a close XL665 receptor, and the receptor emits emission light (665 nm) after being excited; the specific signal is proportional to the phosphorylated substrate; when an inhibitor is added, the phosphorylation level is inhibited, the emission light at 665 nm is undetectable, and only the emission light at 620 nm is detected, so as to evaluate the level of inhibition of kinase activity by the compound.
Replicate wells were set for the assay. […] 2.5 μL of DDR1 (2.7 nM, 08-113, Carna) solution was transferred to a 384 reaction plate. The plate was centrifuged at 1000 rpm for 60 s using a centrifuge and incubated at 25° C. for 10 min. A mixed solution of 2× biotin-labeled tyrosine kinase substrate (1 μM) and ATP (25 μM) was prepared using the kinase reaction buffer. […] The fluorescence signals at 620 nm (Cryptate) and 665 nm (XL665) were read using a BMG microplate reader. The ratio of the fluorescence signals, i.e., (665 nm/620 nm)×10000, in each well was calculated, and the ratio represented the degree of the kinase activity.

[4] = target: T3, TRKC (Homo sapiens, UniProt Q16288); test: TRKC enzyme activity assay (HTRF); type: biochemical; details: ATP 25 μM
T3 construct: purchased Carna 08-197
T3 sequence (Q16288 32-839): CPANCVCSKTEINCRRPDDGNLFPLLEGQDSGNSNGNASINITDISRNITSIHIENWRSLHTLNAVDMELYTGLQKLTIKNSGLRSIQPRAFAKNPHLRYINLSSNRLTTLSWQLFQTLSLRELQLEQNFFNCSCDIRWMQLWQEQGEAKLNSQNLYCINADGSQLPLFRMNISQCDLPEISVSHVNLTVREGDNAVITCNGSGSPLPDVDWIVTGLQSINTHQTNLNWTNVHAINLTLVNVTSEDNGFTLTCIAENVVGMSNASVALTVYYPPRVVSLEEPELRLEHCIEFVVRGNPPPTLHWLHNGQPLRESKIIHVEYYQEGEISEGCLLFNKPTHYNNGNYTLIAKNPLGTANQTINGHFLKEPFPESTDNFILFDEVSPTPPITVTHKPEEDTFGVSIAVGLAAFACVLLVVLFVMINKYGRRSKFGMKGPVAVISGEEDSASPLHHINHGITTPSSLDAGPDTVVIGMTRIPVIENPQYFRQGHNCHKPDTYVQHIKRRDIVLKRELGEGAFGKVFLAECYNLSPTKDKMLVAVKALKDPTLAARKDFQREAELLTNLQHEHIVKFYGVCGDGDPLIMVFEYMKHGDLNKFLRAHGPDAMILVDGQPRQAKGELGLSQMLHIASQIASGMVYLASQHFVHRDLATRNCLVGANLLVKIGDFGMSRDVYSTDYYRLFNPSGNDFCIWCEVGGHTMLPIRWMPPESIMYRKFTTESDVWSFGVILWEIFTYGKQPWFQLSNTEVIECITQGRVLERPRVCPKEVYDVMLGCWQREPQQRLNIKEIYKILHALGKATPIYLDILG
Description: as §2
Replicate wells were set for the assay. […] 2.5 μL of TRKC (1.5 nM, 08-197, Carna) solution was transferred to a 384 reaction plate. The plate was centrifuged at 1000 rpm for 60 s using a centrifuge and incubated at 25° C. for 10 min. A mixed solution of 2× biotin-labeled tyrosine kinase substrate (1 μM) and ATP (25 μM) was prepared using the kinase reaction buffer. […] The fluorescence signals at 620 nm (Cryptate) and 665 nm (XL665) were read using a BMG microplate reader. The ratio of the fluorescence signals, i.e., (665 nm/620 nm)×10000, in each well was calculated, and the ratio represented the degree of the kinase activity.

[5] = target: T4, TRKA (Homo sapiens, UniProt P04629); test: TRKA enzyme activity assay (HTRF); type: biochemical; details: ATP 25 μM
T4 construct: purchased Carna 08-186
T4 sequence (P04629 33-796): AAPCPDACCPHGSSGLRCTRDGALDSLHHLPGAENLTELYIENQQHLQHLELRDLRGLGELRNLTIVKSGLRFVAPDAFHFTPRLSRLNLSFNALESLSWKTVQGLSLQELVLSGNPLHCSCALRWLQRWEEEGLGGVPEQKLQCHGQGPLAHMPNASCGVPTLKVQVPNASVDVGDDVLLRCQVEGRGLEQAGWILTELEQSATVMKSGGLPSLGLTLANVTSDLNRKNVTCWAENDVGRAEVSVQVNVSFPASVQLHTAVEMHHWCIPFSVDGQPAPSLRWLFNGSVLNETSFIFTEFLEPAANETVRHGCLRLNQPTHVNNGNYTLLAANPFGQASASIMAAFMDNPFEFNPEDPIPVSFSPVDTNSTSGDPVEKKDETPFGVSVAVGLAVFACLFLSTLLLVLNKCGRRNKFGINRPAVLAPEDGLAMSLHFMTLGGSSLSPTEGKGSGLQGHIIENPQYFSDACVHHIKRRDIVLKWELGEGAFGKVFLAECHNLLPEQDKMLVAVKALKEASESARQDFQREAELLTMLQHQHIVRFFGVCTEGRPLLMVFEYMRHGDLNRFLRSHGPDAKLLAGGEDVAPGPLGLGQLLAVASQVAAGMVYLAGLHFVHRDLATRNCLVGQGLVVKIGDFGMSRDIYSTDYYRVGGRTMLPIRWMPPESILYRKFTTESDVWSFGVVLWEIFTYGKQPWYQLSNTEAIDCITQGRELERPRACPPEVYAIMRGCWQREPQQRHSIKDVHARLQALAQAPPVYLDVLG
Description: as §2
Replicate wells were set for the assay. 25 nL of the compound was transferred to a 384 reaction plate (Catalog No. 784075, Greiner) using Echo 665. […] 2.5 μL of TRKA (1.5 nM, 08-186, Carna) solution was transferred to a 384 reaction plate. The plate was centrifuged at 1000 rpm for 60 s using a centrifuge and incubated at 25° C. for 10 min. […] The fluorescence signals at 620 nm (Cryptate) and 665 nm (XL665) were read using a BMG microplate reader. The ratio of the fluorescence signals, i.e., (665 nm/620 nm)×10000, in each well was calculated, and the ratio represented the degree of the kinase activity.

[6] = target: T5, CSF1R (Homo sapiens, UniProt P07333); test: CSF1R enzyme activity assay (HTRF); type: biochemical; details: ATP 25 μM
T5 construct: purchased Carna 08-114
T5 sequence (P07333 538-972 limits assumed): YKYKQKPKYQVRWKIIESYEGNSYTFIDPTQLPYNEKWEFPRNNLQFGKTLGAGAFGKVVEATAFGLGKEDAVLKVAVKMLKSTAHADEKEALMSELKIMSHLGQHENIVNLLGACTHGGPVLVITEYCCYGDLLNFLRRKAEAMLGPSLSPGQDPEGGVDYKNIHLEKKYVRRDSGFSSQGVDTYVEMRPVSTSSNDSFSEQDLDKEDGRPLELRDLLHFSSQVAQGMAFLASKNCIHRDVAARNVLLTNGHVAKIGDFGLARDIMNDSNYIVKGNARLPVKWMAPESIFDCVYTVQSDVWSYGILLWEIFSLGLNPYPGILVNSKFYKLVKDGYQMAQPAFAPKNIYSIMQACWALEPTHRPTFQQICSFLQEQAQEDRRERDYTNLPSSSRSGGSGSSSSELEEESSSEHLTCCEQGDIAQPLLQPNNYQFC
Description: as §2
Replicate wells were set for the assay. […] 2.5 μL of CSF1R (1.3 nM, 08-114, Carna) solution was transferred to a 384 reaction plate. The plate was centrifuged at 1000 rpm for 60 s using a centrifuge and incubated at 25° C. for 10 min. A mixed solution of 2× biotin-labeled tyrosine kinase substrate (1 μM) and ATP (25 μM) was prepared using the kinase reaction buffer. […] The fluorescence signals at 620 nm (Cryptate) and 665 nm (XL665) were read using a BMG microplate reader. The ratio of the fluorescence signals, i.e., (665 nm/620 nm)×10000, in each well was calculated, and the ratio represented the degree of the kinase activity.

[7] = Mouse body weight change in the oral administration experiment; type: in vivo, Balb/c mice; details: vs group 2 (vehicle)
Description: as §1

Cc1c(C#Cc2cnc3ccc(N4CCC(O)CC4)nn23)cccc1C(=O)Nc1cc(Cl)cc(C(F)(F)F)c1 [compound 1, N-(3-chloro-5-(trifluoromethyl)phenyl)-3-((6-(4-hydroxypiperidin-1-yl)imidazo[1,2-b]pyridazin-3-yl)ethynyl)-2-methylbenzamide]
IC50 [1]: 37.9 nM
Inflammatory cell content in right ear tissue, Significance level ([2]; 3 mpk p.o. once daily 22 days): *** (***p<0.001)
Clinical scores of dorsal skin, Significance level ([2]; 3 mpk p.o. once daily 22 days): ns (p>0.05)
Rate of change in the thickness of the pinna of the right ear, Significance level ([2]; 3 mpk p.o. once daily 22 days): * (*p<0.05)
Thickness of dermis layer of right ear, Significance level ([2]; 3 mpk p.o. once daily 22 days): **** (****p<0.0001)
Thickness of epidermal layer of right ear, Significance level ([2]; 3 mpk p.o. once daily 22 days): * (*p<0.05)
Inflammatory cell content in right ear tissue, Significance level ([2]; 10 mpk p.o. once daily 22 days): *** (***p<0.001)
Clinical scores of dorsal skin, Significance level ([2]; 10 mpk p.o. once daily 22 days): * (*p<0.05)
Rate of change in the thickness of the pinna of the right ear, Significance level ([2]; 10 mpk p.o. once daily 22 days): **** (****p<0.0001)
Thickness of dermis layer of right ear, Significance level ([2]; 10 mpk p.o. once daily 22 days): **** (****p<0.0001)
Thickness of epidermal layer of right ear, Significance level ([2]; 10 mpk p.o. once daily 22 days): * (*p<0.05)
Inflammatory cell content in right ear tissue, Significance level ([2]; 30 mpk p.o. once daily 22 days): *** (***p<0.001)
Clinical scores of dorsal skin, Significance level ([2]; 30 mpk p.o. once daily 22 days): *** (***p<0.001)
Rate of change in the thickness of the pinna of the right ear, Significance level ([2]; 30 mpk p.o. once daily 22 days): **** (****p<0.0001)
Thickness of dermis layer of right ear, Significance level ([2]; 30 mpk p.o. once daily 22 days): **** (****p<0.0001)
Thickness of epidermal layer of right ear, Significance level ([2]; 30 mpk p.o. once daily 22 days): * (*p<0.05)
Pinna thickness change rate at time point, Significance level ([2]; day 3, 3 mpk p.o. once daily): ns (p>0.05)
Pinna thickness change rate at time point, Significance level ([2]; day 3, 10 mpk p.o. once daily): ns (p>0.05)
Pinna thickness change rate at time point, Significance level ([2]; day 3, 30 mpk p.o. once daily): ** (**p<0.01)
Pinna thickness change rate at time point, Significance level ([2]; day 5, 3 mpk p.o. once daily): ns (p>0.05)
Pinna thickness change rate at time point, Significance level ([2]; day 5, 10 mpk p.o. once daily): ns (p>0.05)
Pinna thickness change rate at time point, Significance level ([2]; day 5, 30 mpk p.o. once daily): ** (**p<0.01)
Pinna thickness change rate at time point, Significance level ([2]; day 7, 3 mpk p.o. once daily): ns (p>0.05)
Pinna thickness change rate at time point, Significance level ([2]; day 7, 10 mpk p.o. once daily): ns (p>0.05)
Pinna thickness change rate at time point, Significance level ([2]; day 7, 30 mpk p.o. once daily): ** (**p<0.01)
Pinna thickness change rate at time point, Significance level ([2]; day 10, 3 mpk p.o. once daily): * (*p<0.05)
Pinna thickness change rate at time point, Significance level ([2]; day 10, 10 mpk p.o. once daily): ** (**p<0.01)
Pinna thickness change rate at time point, Significance level ([2]; day 10, 30 mpk p.o. once daily): ** (**p<0.01)
Pinna thickness change rate at time point, Significance level ([2]; day 12, 3 mpk p.o. once daily): ns (p>0.05)
Pinna thickness change rate at time point, Significance level ([2]; day 12, 10 mpk p.o. once daily): ns (p>0.05)
Pinna thickness change rate at time point, Significance level ([2]; day 12, 30 mpk p.o. once daily): ** (**p<0.01)
Pinna thickness change rate at time point, Significance level ([2]; day 14, 3 mpk p.o. once daily): ns (p>0.05)
Pinna thickness change rate at time point, Significance level ([2]; day 14, 10 mpk p.o. once daily): ** (**p<0.01)
Pinna thickness change rate at time point, Significance level ([2]; day 14, 30 mpk p.o. once daily): ** (**p<0.01)
Pinna thickness change rate at time point, Significance level ([2]; day 17, 3 mpk p.o. once daily): ns (p>0.05)
Pinna thickness change rate at time point, Significance level ([2]; day 17, 10 mpk p.o. once daily): ns (p>0.05)
Pinna thickness change rate at time point, Significance level ([2]; day 17, 30 mpk p.o. once daily): * (*p<0.05)
Pinna thickness change rate at time point, Significance level ([2]; day 19, 3 mpk p.o. once daily): ns (p>0.05)
Pinna thickness change rate at time point, Significance level ([2]; day 19, 10 mpk p.o. once daily): ** (**p<0.01)
Pinna thickness change rate at time point, Significance level ([2]; day 19, 30 mpk p.o. once daily): *** (***p<0.001)
Pinna thickness change rate at time point, Significance level ([2]; day 21, 3 mpk p.o. once daily): ns (p>0.05)
Pinna thickness change rate at time point, Significance level ([2]; day 21, 10 mpk p.o. once daily): ** (**p<0.01)
Pinna thickness change rate at time point, Significance level ([2]; day 21, 30 mpk p.o. once daily): *** (***p<0.001)
Number of inflammatory cells per mm ([2]; 3 mpk p.o. once daily 22 days): 189 ± 27.25 cells per mm
Number of inflammatory cells per mm ([2]; 10 mpk p.o. once daily 22 days): 162 ± 18.31 cells per mm
Number of inflammatory cells per mm ([2]; 30 mpk p.o. once daily 22 days): 160 ± 34.18 cells per mm
IC50 [3]: 0.762 nM
IC50 [4]: 0.35 nM
IC50 [5]: 4.4 nM
IC50 [6]: 14.7 nM
Rate of change in body weight, Significance level ([7]; 3 mpk p.o. once daily 22 days): ** (**p<0.01)
Rate of change in body weight, Significance level ([7]; 10 mpk p.o. once daily 22 days): ns (p>0.05)
Rate of change in body weight, Significance level ([7]; 30 mpk p.o. once daily 22 days): ns (p>0.05)
